# Source: patent US12011502B2, “Compositions and methods of administering baclofen” (AMNEAL PHARMACEUTICALS LLC, priority 2021, dated 2024)
# Columns and labels:
# [1] = reported in the literature; cited from earlier work
# [2] = limited evaluation, literature; cited from earlier work
# [3] = Solubility of baclofen in solutions comprising sulfate or phosphate; type: physicochemical
# Description: A concentration of 8.8 mg/mL sodium chloride is considered isotonic and therefore desirable as being physiologically acceptable.
solubility of baclofen ([3]; in solutions comprising sulfate or phosphate),"concentration of baclofen that can be dissolved ([3]; solutions containing phosphate, sulfate, potassium, sodium, or magnesium, such as greater than 3, 4, 5 or 6 mg/mL)",SMILES,"dominant metabolite of baclofen, reported share [1]",biological activity of the metabolite [2]
–,–,"O=C(O)CC(CO)c1ccc(Cl)cc1 (stereo not shown) [M1, 3-(4-chlorophenyl)-4-hydroxybutyric acid]",15%,inactive
increased,greater than 2 mg/mL,"NCC(CC(=O)O)c1ccc(Cl)cc1 (stereo not shown) [baclofen, 4-amino-3-(4-chlorophenyl)butanoic acid]",–,–
